Where two headings read alike, the source gives them in different places.
Legend:
[1] = biological target: T1, human Gcg receptor (hGcgR) (Homo sapiens, UniProt P47871); experiment: [125I]-Glucagon binding, SPA with membranes of HEK293 cells expressing hGcgR; conditions: human GcgR; geometric mean (SEM, n); read-out: Binding Affinity Ki, nM (SEM, n) hGCGR
T1 construct: expressed in transfected cells; crude membranes

hGLP-1R = hGLP-1R (Homo sapiens, UniProt P43220); experiment: Functional cAMP formation (HTRF) in HEK-293 clonal cells expressing hGLP-1R, 0.1% bovine casein, without or with 1.0% human serum albumin; assay type: cell-based; set-up: expressed in transfected cells; conditions: for Emax: read-out: hGLP-1R Emax, % ± SEM; for EC50: read-out: hGLP-1R EC50, nM (SEM, n)
Procedure, shortened: (§1)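 Readings of the HTRF 665/620 nm ratio, which falls as cAMP rises, were converted to nM cAMP using a standard curve after 30 min peptide exposure at 37° C.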

hGCGR = biological target: T2, hGCGR (Homo sapiens, UniProt P47871); experiment: Functional cAMP formation (HTRF) in HEK-293 clonal cells expressing hGCGR, 0.1% bovine casein, without or with 1.0% human serum albumin; assay type: cell-based; conditions: read-out: hGCGR EC50, nM (SEM, n)
T2 construct: expressed in transfected cells
Procedure, shortened: as §1

hGIPR = biological target: T3, hGIPR (Homo sapiens, UniProt P48546); experiment: Functional cAMP formation (HTRF) in HEK-293 clonal cells expressing hGIPR, 0.1% bovine casein, without or with 1.0% human serum albumin; assay type: cell-based; conditions: for Emax: read-out: hGIPR Emax, % ± SEM; for EC50: read-out: hGIPR EC50, nM (SEM, n)
T3 construct: expressed in transfected cells
T3 sequence (P48546 22-466): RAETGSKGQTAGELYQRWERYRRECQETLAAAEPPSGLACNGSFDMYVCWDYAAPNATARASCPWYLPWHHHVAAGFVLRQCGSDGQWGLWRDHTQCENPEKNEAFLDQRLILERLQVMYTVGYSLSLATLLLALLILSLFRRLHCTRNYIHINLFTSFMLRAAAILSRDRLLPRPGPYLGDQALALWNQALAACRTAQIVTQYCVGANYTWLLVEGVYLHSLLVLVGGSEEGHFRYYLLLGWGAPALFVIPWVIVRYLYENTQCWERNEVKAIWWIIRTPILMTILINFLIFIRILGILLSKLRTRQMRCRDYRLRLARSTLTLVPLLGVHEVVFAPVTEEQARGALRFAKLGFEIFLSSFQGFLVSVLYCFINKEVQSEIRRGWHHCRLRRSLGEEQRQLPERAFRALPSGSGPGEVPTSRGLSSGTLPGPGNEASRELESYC
Procedure, shortened: as §1

[2] = biological target: T4, human GLP-1 receptor (hGLP-1R) (Homo sapiens, UniProt P43220); experiment: [125I]-GLP-1 binding, SPA with membranes of HEK293 cells expressing hGLP-1R; conditions: human GLP-1R; geometric mean (SEM, n); read-out: Binding Affinity Ki, nM (SEM, n) hGLP-1R
T4 construct: expressed in transfected cells; crude membranes

[3] = HEK293, cAMP, 37° C., 0.1% bovine casein, percent of maximal response to GLP-1(7-36)NH2, arithmetic mean
[4] = cAMP, 37° C., 0.1% bovine casein (no human serum albumin), geometric mean
[5] = cAMP, 37° C., 0.1% bovine casein and 1.0% human serum albumin, geometric mean (SEM, n)
[6] = HEK293, cAMP, 37° C., 0.1% bovine casein and 1.0% human serum albumin, percent of maximal response to GIP(1-42)NH2
[7] = 0.1% bovine casein and 1.0% human serum albumin, 37° C., geometric mean
[8] = cAMP, incubated at 37° C., 0.1% bovine casein (no human serum albumin), geometric mean
[9] = HEK293, 0.1% bovine casein and 1.0% human serum albumin, 37° C., percent of maximal response to GIP(1-42)NH2
[10] = HEK293, percent of maximal response to GIP(1-42)NH2, 37° C., 0.1% bovine casein, arithmetic mean

T2 sequence (P47871 26-477): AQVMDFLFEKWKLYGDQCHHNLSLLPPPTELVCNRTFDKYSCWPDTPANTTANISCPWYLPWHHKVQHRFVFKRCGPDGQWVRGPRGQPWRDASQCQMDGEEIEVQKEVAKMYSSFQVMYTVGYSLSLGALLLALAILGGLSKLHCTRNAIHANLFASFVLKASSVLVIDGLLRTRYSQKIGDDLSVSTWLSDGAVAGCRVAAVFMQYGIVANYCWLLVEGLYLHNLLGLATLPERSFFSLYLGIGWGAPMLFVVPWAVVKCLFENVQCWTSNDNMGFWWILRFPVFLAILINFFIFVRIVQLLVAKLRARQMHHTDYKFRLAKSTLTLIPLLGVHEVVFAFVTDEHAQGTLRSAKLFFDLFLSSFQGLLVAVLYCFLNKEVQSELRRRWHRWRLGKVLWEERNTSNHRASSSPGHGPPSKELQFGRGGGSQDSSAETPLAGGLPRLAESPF
T1 sequence (P47871 26-477): as above
Chain of hGLP-1R (P43220 24-463): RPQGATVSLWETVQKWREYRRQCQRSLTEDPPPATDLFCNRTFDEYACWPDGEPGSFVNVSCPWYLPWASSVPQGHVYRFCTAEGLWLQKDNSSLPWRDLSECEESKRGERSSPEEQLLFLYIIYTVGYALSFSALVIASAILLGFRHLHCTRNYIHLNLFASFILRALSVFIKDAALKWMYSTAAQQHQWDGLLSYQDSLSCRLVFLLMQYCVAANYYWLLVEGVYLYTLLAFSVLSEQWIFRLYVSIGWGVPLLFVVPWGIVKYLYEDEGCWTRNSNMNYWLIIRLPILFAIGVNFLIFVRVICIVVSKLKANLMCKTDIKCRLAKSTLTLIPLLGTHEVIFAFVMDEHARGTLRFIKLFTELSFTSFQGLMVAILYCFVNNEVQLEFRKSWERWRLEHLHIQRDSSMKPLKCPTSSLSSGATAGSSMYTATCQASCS
T4 sequence (P43220 24-463): as above

Row | SMILES | Ki [1] | Emax (hGLP-1R; [3]) | EC50 (hGLP-1R; [4]) | EC50 (hGCGR; [4]) | EC50 (hGCGR; [5]) | Emax (hGIPR; [6]) | EC50 (hGIPR; [4]) | Ki [2] | EC50 (hGLP-1R; [5]) | EC50 (hGIPR; [5]) | EC50 (hGLP-1R; [7]) | EC50 (hGLP-1R; [8]) | EC50 (hGCGR; [7]) | EC50 (hGCGR; [8]) | EC50 (hGIPR; [7]) | Emax (hGIPR; [9]) | Emax (hGIPR; [10]) | EC50 (hGIPR; [8]) | Emax (hGLP-1R; HEK293, 0.1% bovine casein and 1.0% human serum albumin, 37° C., percent of maximal response to GLP-1(7-36)NH2) | Emax (hGLP-1R; HEK293, percent of maximal response to GLP-1(7-36)NH2, 37° C., 0.1% bovine casein, arithmetic mean)
1 | CC[C@H](C)[C@H](NC(=O)[C@H](CC(C)C)NC(=O)[C@](C)(Cc1ccc(O)cc1)NC(=O)[C@H](CCCCNC(=O)COCCOCCNC(=O)[C@H]1CC[C@H](CNC(=O)CC[C@H](NC(=O)CCCCCCCCCCCCC(=O)O)C(=O)O)CC1)NC(=O)[C@@H](NC(=O)[C@H](Cc1ccccc1)NC(=O)[C@H](CCCN)NC(=O)C(C)(C)NC(=O)[C@H](CCC(N)=O)NC(=O)[C@H](C)NC(=O)[C@H](CCC(N)=O)NC(=O)[C@H](CCCN)NC(=O)[C@H](CC(=O)O)NC(=O)[C@H](CC(C)C)NC(=O)[C@](C)(CC(C)C)NC(=O)[C@@H](NC(=O)C(C)(C)NC(=O)[C@H](Cc1ccncc1)NC(=O)[C@H](CC(=O)O)NC(=O)[C@H](CO)NC(=O)[C@@H](NC(=O)[C@](C)(Cc1ccccc1F)NC(=O)[C@@H](NC(=O)CNC(=O)[C@H](CCC(=O)O)NC(=O)C(C)(C)NC(=O)[C@@H](N)Cc1ccc(O)cc1)[C@@H](C)O)[C@@H](C)O)[C@@H](C)CC)[C@@H](C)CC)C(=O)N[C@@H](CCCCNC(=O)COCCOCCNC(=O)[C@H]1CC[C@H](CNC(=O)CC[C@H](NC(=O)CCCCCCCCCCCCC(=O)O)C(=O)O)CC1)C(=O)NCC(=O)NCC(=O)N1CCC[C@H]1C(=O)N[C@@H](CO)C(=O)N[C@@H](CO)C(=O)NCC(=O)N[C@@H](C)C(=O)N1CCC[C@H]1C(=O)N1CCC[C@H]1C(=O)N1CCC[C@H]1C(=O)N[C@@H](CO)C(N)=O [Example 472] | 258 nM | 118% | 0.154 nM | > 9950 nM | > 9950 nM | 76.3% | 0.0131 nM | 0.254 nM | – | – | – | – | – | – | – | – | – | – | – | –
2 | CC[C@H](C)[C@H](NC(=O)[C@H](CC(C)C)NC(=O)[C@](C)(Cc1ccc(O)cc1)NC(=O)[C@@H](CCC(=O)O)NC(=O)[C@@H](NC(=O)[C@H](Cc1ccccc1)NC(=O)[C@H](CCC(=O)O)NC(=O)C(C)(C)NC(=O)[C@H](CCC(N)=O)NC(=O)[C@H](C)NC(=O)[C@H](CCCCNC(=O)COCCOCCNC(=O)CC[C@H](NC(=O)CCCCCCCCCCCCC(=O)O)C(=O)O)NC(=O)[C@H](CCCN)NC(=O)[C@H](CC(=O)O)NC(=O)[C@H](CC(C)C)NC(=O)[C@](C)(CC(C)C)NC(=O)[C@@H](NC(=O)C(C)(C)NC(=O)[C@H](Cc1ccncc1)NC(=O)[C@H](CC(=O)O)NC(=O)[C@H](CO)NC(=O)[C@@H](NC(=O)[C@](C)(Cc1ccccc1F)NC(=O)[C@@H](NC(=O)CNC(=O)[C@H](CCC(=O)O)NC(=O)C(C)(C)NC(=O)[C@@H](N)Cc1ccc(O)cc1)[C@@H](C)O)[C@@H](C)O)[C@@H](C)CC)[C@@H](C)CC)C(=O)N[C@@H](CCC(=O)O)C(=O)NCC(=O)NCC(=O)N1CCC[C@H]1C(=O)N[C@@H](CO)C(=O)N[C@@H](CO)C(=O)NCC(=O)N[C@@H](C)C(=O)N1CCC[C@H]1C(=O)N1CCC[C@H]1C(=O)N1CCC[C@H]1C(=O)N[C@@H](CO)C(=O)N[C@@H](CCCCNC(=O)COCCOCCNC(=O)CC[C@H](NC(=O)CCCCCCCCCCCCC(=O)O)C(=O)O)C(N)=O [Example 338] | > 957 nM | 109% | 0.468 nM | > 10100 nM | > 10100 nM | 83.9% | 0.0157 nM | – | 36.6 nM | 1.24 nM | – | – | – | – | – | – | – | – | – | –
3 | CC[C@H](C)[C@H](NC(=O)[C@H](CC(C)C)NC(=O)[C@](C)(Cc1ccc(O)cc1)NC(=O)[C@@H](CCC(=O)O)NC(=O)[C@@H](NC(=O)[C@H](Cc1ccccc1)NC(=O)[C@H](CCC(=O)O)NC(=O)C(C)(C)NC(=O)[C@H](CCC(N)=O)NC(=O)[C@H](C)NC(=O)[C@H](CCCCNC(=O)COCCOCCNC(=O)COCCOCCNC(=O)[C@@H](N)CCCCNC(=O)CC[C@H](NC(=O)CCCCCCCCCCCCC(=O)O)C(=O)O)NC(=O)[C@H](CCCN)NC(=O)[C@H](CC(=O)O)NC(=O)[C@H](CC(C)C)NC(=O)[C@](C)(CC(C)C)NC(=O)[C@@H](NC(=O)[C@H](CO)NC(=O)[C@H](Cc1ccncc1)NC(=O)[C@H](CC(=O)O)NC(=O)[C@H](CO)NC(=O)[C@@H](NC(=O)[C@](C)(Cc1ccccc1F)NC(=O)[C@@H](NC(=O)CNC(=O)[C@H](CCC(=O)O)NC(=O)C(C)(C)NC(=O)[C@@H](N)Cc1ccc(O)cc1)[C@@H](C)O)[C@@H](C)O)[C@@H](C)CC)[C@@H](C)CC)C(=O)N[C@@H](CCC(=O)O)C(=O)NCC(=O)NCC(=O)N[C@@H](CCCCNC(=O)COCCOCCNC(=O)COCCOCCNC(=O)[C@@H](N)CCCCNC(=O)CC[C@H](NC(=O)CCCCCCCCCCCCC(=O)O)C(=O)O)C(=O)N[C@@H](CO)C(=O)N[C@@H](CO)C(=O)NCC(=O)N[C@@H](C)C(=O)N1CCC[C@H]1C(=O)N1CCC[C@H]1C(=O)N1CCC[C@H]1C(=O)N[C@@H](CO)C(N)=O [Example 34] | > 957 nM | – | – | – | – | – | – | – | – | – | 19.8 nM | 1 nM | > 9950 nM | > 9950 nM | 0.213 nM | 89.1 ± 2% | 97.4 ± 2.34% | 0.0148 nM | – | –
4 | CC[C@H](C)[C@H](NC(=O)[C@H](CC(C)C)NC(=O)[C@](C)(Cc1ccccc1)NC(=O)[C@@H](CCC(=O)O)NC(=O)[C@@H](NC(=O)[C@H](Cc1ccccc1)NC(=O)[C@H](CCC(=O)O)NC(=O)C(C)(C)NC(=O)[C@H](CCC(N)=O)NC(=O)[C@H](C)NC(=O)[C@H](CCCCNC(=O)COCCOCCNC(=O)COCCOCCNC(=O)CC[C@H](NC(=O)CCCCCCCCCCCCC(=O)O)C(=O)O)NC(=O)[C@H](CCCN)NC(=O)[C@H](CC(=O)O)NC(=O)[C@H](CC(C)C)NC(=O)[C@](C)(CC(C)C)NC(=O)[C@@H](NC(=O)[C@H](CO)NC(=O)[C@H](Cc1ccncc1)NC(=O)[C@H](CC(=O)O)NC(=O)[C@H](CO)NC(=O)[C@@H](NC(=O)[C@](C)(Cc1ccccc1)NC(=O)[C@@H](NC(=O)CNC(=O)[C@H](CCC(=O)O)NC(=O)C(C)(C)NC(=O)[C@@H](N)Cc1ccc(O)cc1)[C@@H](C)O)[C@@H](C)O)[C@@H](C)CC)[C@@H](C)CC)C(=O)N[C@@H](CCC(=O)O)C(=O)NCC(=O)NCC(=O)N[C@@H](CCCCNC(=O)COCCOCCNC(=O)COCCOCCNC(=O)CC[C@H](NC(=O)CCCCCCCCCCCCC(=O)O)C(=O)O)C(=O)N[C@@H](CO)C(=O)N[C@@H](CO)C(=O)NCC(=O)N[C@@H](C)C(=O)N1CCC[C@H]1C(=O)N1CCC[C@H]1C(=O)N1CCC[C@H]1C(=O)N[C@@H](CO)C(N)=O [Example 48] | > 966 nM | – | – | – | – | – | – | – | – | – | – | 1 nM | > 9950 nM | > 9950 nM | – | 90.8% | 91.6 ± 3.38% | 0.0182 nM | 111% | 87.8 ± 6.25%
